Where two headings read alike, the source gives them in different places. Peptide text beside a SMILES is read from it.
Experiments:
[1] = system: MCF7 breast adenocarcinoma cell line; assay: Cell viability assay (MTT); type: cell-based, human; details: 10^4 cells per well, 24 h with peptide, 2-fold dilution series from 100 µM in DMEM, absorbance 540 nm, mean ± std, N = 3
Method: (§1) 10% fetal bovine serum and 1% penicillin-streptomycin (Thermo Fisher Scientific, Waltham, MA, USA). The cultures were kept at 37°C in a 5% CO2 atmosphere incubator (Thermo Fisher Scientific, Waltham, MA, USA) and split every two to three days to new culture flasks. Cells no older than 20 passages were used for experiments.
(§2) For splitting, the cell culture media was aspirated, the cells were washed with 0.01 M phosphate buffered saline (PBS, Gibco, Thermo Fisher Scientific, Waltham, MA, USA) and trypsin-EDTA (trypsin - ethylene diamine tetraacetic acid, Fisher scientific, UK) was added to the cell layer to detach them from the flask surface. After incubation for 2 min at 37°C, cells were resuspended with an equal volume of DMEM media and centrifuged at 310 g for 5 min at 4°C. After removal of the supernatant the cells were resuspended in DMEM cell media and split into new cell culture flasks at a 1/3 to 1/5 ratio.
(§3) Determination of the anticancer peptides half effective concentration (EC50) was performed by a 3-(4,5-dimethylthiazol-2-yl)-2,5-diphenyltetrazolium bromide (MTT) assay, as described elsewhere21. Briefly, […] were seeded in each well of a 96-well plate and left to adhere and […]
(§4) sulfoxide (DMSO, Fisher Scientific, UK) at an intermediate concentration of 1 mM. The peptides were then diluted in a 2-fold dilution series starting at 100 μM with DMEM culture media. Cells were incubated with the peptide solutions for 24 h. After this time, the cell media was removed and the cells were incubated for 1 h with a 0.5 mg mL−1 MTT solution to allow enough time for formazan crystal formation (Sigma Aldrich, Steinheim, Germany). The supernatant was removed and 100 μL of DMSO were added into each well to resuspend the formazan crystals.
(§5) After manually shaking the plates to completely dissolve the crystals, the absorbance was measured at 540 nm in a Tecan Infinity M1000 spectrophotometer. The cell viability was determined based on the quantification of the color intensity in each culture well, considering the absorbance obtained by the control media without peptides as a 100% survival. The resultant sigmoidal curves were analyzed with the drc22 R package using a log-logistic model

[2] = system: A549 lung adenocarcinoma cell line; assay: Cell viability assay (MTT); type: cell-based, human
Method: as §1, §2, §3, §4, §5

[3] = MTT, 10^4 cells per well, 24 h with peptide, 2-fold dilution series from 100 µM in DMEM, absorbance 540 nm, mean ± std, N = 3, read-out: A549 EC50/µM

| Structure (SMILES) | EC50 [1] | EC50 [2, 3] | EC50 ([2]; Fig. S11, experimental replicate 1 (top panel), fit value (error in brackets), N = 6 technical replicates, MTT 24 h, read-out: EC50) | EC50 ([2]; Fig. S11, experimental replicate 2 (middle panel), fit value (error in brackets), N = 6 technical replicates, MTT 24 h, read-out: EC50) | EC50 ([2]; Fig. S11, experimental replicate 3 (bottom panel), fit value (error in brackets), N = 6 technical replicates, MTT 24 h, read-out: EC50) |
| --- | --- | --- | --- | --- | --- |
| CC[C@H](C)[C@H](NC(=O)[C@H](CC(C)C)NC(=O)[C@H](CCCCN)NC(=O)[C@H](CC(C)C)NC(=O)[C@@H](NC(=O)[C@H](C)NC(=O)CNC(=O)[C@H](C)NC(=O)[C@H](CC(C)C)NC(=O)[C@H](CCCCN)NC(=O)CNC(=O)[C@H](CC(C)C)NC(=O)[C@H](CCCCN)NC(=O)[C@@H](NC(=O)[C@H](Cc1c[nH]c2ccccc12)NC(=O)[C@H](CC(C)C)NC(=O)[C@@H](N)Cc1ccccc1)[C@@H](C)CC)C(C)C)C(=O)N[C@@H](CC(C)C)C(=O)NCC(=O)N[C@@H](CC(C)C)C(=O)N[C@@H](CCCCN)C(=O)N[C@@H](CCCCN)C(=O)N[C@H](C(=O)N[C@H](C(N)=O)C(C)C)C(C)C [Helical1] (H-FLWIKLGKLAGAVLKLILGLKKVV-NH2) | 4.4 ± 1.3 µM | 8.3 ± 2 µM |  |  |  |
| CC[C@H](C)[C@H](NC(=O)[C@H](CC(N)=O)NC(=O)[C@@H]1CCCN1C(=O)[C@@H](NC(=O)[C@H](C)NC(=O)[C@H](C)NC(=O)[C@H](CC(N)=O)NC(=O)[C@@H](NC(=O)[C@@H](N)CCCNC(=N)N)C(C)C)[C@@H](C)CC)C(=O)N[C@H](C(=O)N[C@H](C(N)=O)C(C)C)[C@@H](C)CC [Gradient4] (H-RVNAAIPNIIV-NH2; N-terminus assumed) | > 50 µM | > 50 µM |  |  |  |
| CC[C@H](C)[C@H](NC(=O)[C@@H](NC(=O)[C@H](CC(=O)O)NC(=O)[C@H](Cc1ccccc1)NC(=O)[C@H](CC(C)C)NC(=O)CN)C(C)C)C(=O)NCC(=O)N[C@@H](CO)C(=O)N[C@@H](CCC(N)=O)C(=O)N[C@@H](C)C(=O)NCC(=O)NCC(=O)N[C@@H](C)C(=O)N[C@@H](C)C(=O)N1CCC[C@H]1C(=O)N[C@@H](Cc1c[nH]cn1)C(=O)N[C@@H](Cc1ccccc1)C(=O)N[C@@H](CC(C)C)C(=O)NCC(N)=O [Helical4] (H-GLFDVIGSQAGGAAPHFLG-NH2; N-terminus assumed) | > 50 µM | > 50 µM |  |  |  |
| CC[C@H](C)[C@H](NC(=O)[C@H](Cc1c[nH]c2ccccc12)NC(=O)[C@H](CCCNC(=N)N)NC(=O)[C@H](CCCNC(=N)N)NC(=O)[C@H](CC(C)C)NC(=O)[C@H](Cc1c[nH]c2ccccc12)NC(=O)[C@H](CC(N)=O)NC(=O)[C@H](Cc1c[nH]cn1)NC(=O)[C@@H](NC(=O)[C@H](CCCCN)NC(=O)[C@H](CCCCN)NC(=O)[C@@H](NC(=O)[C@H](Cc1c[nH]c2ccccc12)NC(=O)[C@@H](N)CCCCN)C(C)C)C(C)C)C(=O)N[C@@H](CCCCN)C(=O)N[C@H](C(=O)N[C@@H](Cc1ccccc1)C(=O)N[C@@H](CCC(=O)O)C(=O)N[C@@H](C)C(=O)N[C@@H](CC(C)C)C(=O)N[C@@H](Cc1ccccc1)C(=O)NCC(N)=O)C(C)C [AmphiArc1] (H-KWVKKVHNWLRRWIKVFEALFG-NH2) | 7 ± 0.5 µM | 18.4 ± 0.7 µM |  |  |  |
| CC[C@H](C)[C@H](NC(=O)[C@H](C)NC(=O)[C@H](Cc1c[nH]c2ccccc12)NC(=O)[C@H](CC(C)C)NC(=O)CN)C(=O)N[C@@H](C)C(=O)N[C@H](C(=O)N[C@@H](CCCCN)C(=O)N[C@@H](C)C(=O)NCC(=O)N[C@@H](CCCCN)C(=O)N[C@H](C(=O)N[C@H](C(=O)N[C@@H](CC(C)C)C(=O)N[C@@H](CCCCN)C(=O)N[C@@H](CC(C)C)C(=O)N[C@H](C(=O)N[C@H](C(=O)N[C@@H](Cc1ccccc1)C(=O)N[C@H](C(=O)N[C@@H](Cc1c[nH]c2ccccc12)C(=O)N[C@H](C(=O)N[C@@H](CCCNC(=N)N)C(=O)N[C@H](C(N)=O)C(C)C)[C@@H](C)CC)[C@@H](C)CC)C(C)C)[C@@H](C)CC)[C@@H](C)CC)C(C)C)C(C)C [Helical2] (H-GLWAIAVKAGKVILKLIVFIWIRV-NH2; N-terminus assumed) | > 50 µM | > 50 µM |  |  |  |
| CC[C@H](C)[C@H](NC(=O)[C@@H](NC(=O)[C@H](CC(C)C)NC(=O)[C@@H](NC(=O)[C@H](CC(N)=O)NC(=O)[C@H](CCC(=O)O)NC(=O)[C@H](Cc1ccccc1)NC(=O)[C@H](CC(N)=O)NC(=O)[C@H](CC(=O)O)NC(=O)[C@@H](NC(=O)[C@@H](NC(=O)[C@@H](N)CCCCN)C(C)C)C(C)C)[C@@H](C)CC)[C@@H](C)CC)C(N)=O [Gradient3] (H-KVVDNFENILII-NH2; N-terminus assumed) | > 50 µM | > 50 µM |  |  |  |
| CC[C@H](C)[C@H](NC(=O)[C@H](CC(=O)O)NC(=O)[C@H](CC(C)C)NC(=O)[C@H](CC(C)C)NC(=O)CN)C(=O)N[C@@H](C)C(=O)NCC(=O)NCC(=O)N[C@@H](CC(N)=O)C(=O)N[C@@H](C)C(=O)N[C@@H](CCC(=O)O)C(=O)N[C@H](C(=O)N[C@@H](CC(C)C)C(=O)N[C@@H](C)C(=O)NCC(=O)N[C@@H](Cc1c[nH]cn1)C(=O)N[C@@H](C)C(=O)N[C@H](C(N)=O)C(C)C)[C@@H](C)O [Helical3] (H-GLLDIAGGNAETLAGHAV-NH2; N-terminus assumed) | > 50 µM | > 50 µM |  |  |  |
| CC[C@H](C)[C@H](NC(=O)[C@H](Cc1ccc(O)cc1)NC(=O)[C@H](CC(N)=O)NC(=O)[C@H](CC(C)C)NC(=O)[C@H](CCC(=O)O)NC(=O)[C@H](CCC(=O)O)NC(=O)[C@H](CCCCN)NC(=O)[C@@H](NC(=O)[C@H](CO)NC(=O)[C@H](Cc1c[nH]cn1)NC(=O)[C@H](CCCNC(=N)N)NC(=O)[C@H](Cc1ccccc1)NC(=O)[C@H](C)N)C(C)C)C(=O)N[C@@H](CCCNC(=N)N)C(=O)N[C@@H](CCCNC(=N)N)C(=O)N[C@@H](CCCNC(=N)N)C(=O)N[C@@H](CC(C)C)C(=O)N[C@@H](CCC(=O)O)C(=O)N[C@@H](CCCNC(=N)N)C(=O)N[C@@H](Cc1ccccc1)C(=O)N1CCC[C@H]1C(=O)N[C@@H](CC(N)=O)C(=O)N[C@@H](CCCNC(=N)N)C(=O)N[C@@H](CC(C)C)C(N)=O [AmphiArc3] (H-AFRHSVKEELNYIRRRLERFPNRL-NH2; N-terminus assumed) | > 50 µM | > 50 µM |  |  |  |
| CC[C@H](C)[C@H](NC(=O)[C@H](Cc1c[nH]c2ccccc12)NC(=O)[C@@H](NC(=O)[C@H](CCCNC(=N)N)NC(=O)[C@@H](NC(=O)[C@H](Cc1c[nH]c2ccccc12)NC(=O)[C@@H](N)CCCCN)C(C)C)[C@@H](C)CC)C(=O)N[C@@H](CCCCN)C(=O)N[C@H](C(=O)N[C@@H](CC(C)C)C(=O)N[C@@H](CCCNC(=N)N)C(=O)NCC(=O)N[C@@H](CC(C)C)C(=O)N[C@@H](Cc1ccccc1)C(=O)N[C@H](C(=O)N[C@@H](Cc1c[nH]c2ccccc12)C(=O)N[C@H](C(=O)N[C@@H](Cc1c[nH]c2ccccc12)C(=O)N[C@@H](Cc1ccccc1)C(=O)N[C@@H](Cc1ccccc1)C(N)=O)C(C)C)C(C)C)C(C)C [Gradient1] (H-KWVRIWIKVLRGLFVWVWFF-NH2; N-terminus assumed) | > 50 µM | > 50 µM |  |  |  |
| CC[C@H](C)[C@H](NC(=O)[C@H](CO)NC(=O)[C@H](CCC(N)=O)NC(=O)[C@H](CC(C)C)NC(=O)[C@H](CCCNC(=N)N)NC(=O)[C@H](CCCCN)NC(=O)[C@H](CCCNC(=N)N)NC(=O)[C@H](CC(C)C)NC(=O)CNC(=O)[C@H](CC(N)=O)NC(=O)[C@H](CCC(=O)O)NC(=O)[C@@H](NC(=O)[C@@H](N)CCCNC(=N)N)[C@@H](C)CC)C(=O)N[C@@H](Cc1ccc(O)cc1)C(=O)N[C@@H](CCCNC(=N)N)C(=O)N[C@@H](Cc1c[nH]cn1)C(=O)N[C@@H](CC(C)C)C(=O)N[C@@H](CCC(=O)O)C(=O)N[C@@H](CCC(=O)O)C(N)=O [AmphiArc4] (H-RIENGLRKRLQSIYRHLEE-NH2; N-terminus assumed) | > 50 µM | > 50 µM |  |  |  |
| CC[C@H](C)[C@H](NC(=O)[C@H](CCCNC(=N)N)NC(=O)[C@H](CCCCN)NC(=O)[C@H](CC(C)C)NC(=O)[C@H](Cc1c[nH]c2ccccc12)NC(=O)[C@H](C)N)C(=O)N[C@@H](CCCCN)C(=O)N[C@@H](CCCCN)C(=O)N[C@@H](Cc1ccccc1)C(=O)N[C@@H](CC(C)C)C(=O)N[C@@H](CCCCN)C(=O)N[C@@H](C)C(=O)N[C@@H](CC(C)C)C(=O)N[C@@H](Cc1ccccc1)C(=O)N[C@@H](Cc1c[nH]c2ccccc12)C(=O)N[C@H](C(=O)N[C@@H](Cc1c[nH]c2ccccc12)C(=O)N[C@H](C(=O)N[C@@H](Cc1c[nH]c2ccccc12)C(N)=O)C(C)C)C(C)C [Gradient2] (H-AWLKRIKKFLKALFWVWVW-NH2) | 19 ± 1.8 µM | > 50 µM | 107 µM | 152 µM | 487 µM |

Source: PMC6677754, “In silico design and optimization of selective membranolytic anticancer peptides” (Scientific Reports, 2019)
